The test system of this experiment is AND1 PSC. Description: Megakaryocyte precursor analysis (CD34+ and CD34+CD41a+) in EBs by flow cytometry. Particulars: wild-type AND1 PSCs, TSA 10 and 100 nM from start, day 14, vs DMSO. Type of experiment: cell-based, human. How it is done:
The emergence of megakaryocyte precursor cells (CD34+ and CD34+ CD41a^+) during EB differentiation stages on days 10, 14 and 17 of differentiation was evaluated. One third of the EBs growing in a 6-well plate were collected and washed once with PBS. Similarly, to evaluate the effect of Trichostatin A (TSA) on differentiation, the EBs were treated with 10 nM or 100 nM of DMSO or TSA for 14 days. In both cases, the EBs were disassociated with collagenase B and disassociation buffer as described previously. A homogenous cell suspension was obtained after washing the EBs with PBS and being carefully resuspended in […] of PBS with 2% FCS and 2 mM of EDTA until no clumps were observed. The disassociated cells were stained with anti-CD34-PECy7 antibodies (Miltenyi Biotec,
Bergisch Gladbach, Germany) and anti-CD41 a-PE antibodies and 7AAD. Living cells identified by 7AAD exclusion were analyzed using a FACSCanto II flow cytometer.
A general note: A flow cytometer gives signals particle by particle.

Regarding `CC(/C=C/C(=O)NO)=C\[C@@H](C)C(=O)c1ccc(N(C)C)cc1` [Trichostatin A], the “CD34+ CD41+ megakaryocyte progenitors” value is given as “accelerates the emergence of megakaryocyte progenitors”. For the same molecule, the “CD34+ CD41+ megakaryocyte progenitors” value (listed as TSA) is reported as “increase”.

The values above are taken from patent publication US20160312185A1, “METHOD FOR PRODUCING MEGAKARYOCYTES AND PLATELETS” (FUNDACIÓN PÚBLICA ANDALUZA PROGRESO Y SALUD, priority 2013, published 2016).
